Results from patent US20230390326A1, “COMPOSITION COMPRISING CATIONIC SUBSTANCE, AND USE FOR SAME” (SUNGKWANG MEDICAL FOUNDATION, priority 2020, published 2023).
Peptide text beside a SMILES is read from it. * marks the point of attachment. Cbz = O=C(OCc1ccccc1)*

Legend:
perforin protein = assay: Western blot of perforin protein in cultured NK cells; format: cell-based; settings: NK cells treated with MG132 to prevent intracellular protein degradation
Experimental: Protein extracts from NK cells were separated using 10% SDS-PAGE, and transferred to a polyvinylidene difluoride amersham Biosciences membrane for 90 minutes at the voltage of 120 V. The membrane was blocked in 3% bovine serum albumin (BSA)-containing tris-buffered saline-Tween [TBST; 0.2 M NaCl, 0.1% Tween-20, and 10 mM Tris (pH 7.4)] for 1 hour. The blocked membrane was incubated with a rabbit polyclonal anti-Perforin antibody (1:1000; ab180773, abcam) or a rabbit monoclonal anti-GAPDH antibody (1:1000; […], Cell signaling). After incubation, the membrane was incubated with anti-rabbit polyclonal IgG (1:5000; #7074, Cell Signaling Technology) for 1 hour at room temperature. After each step, the membrane was washed several times using TBST and bound antibodies were detected using an enhanced chemiluminescence detection system (Thermo Fisher Scientific Biosciences) according to manufacturer instructions In order to determine whether […] increases the amount of intracellular perforin, the NK cells of Example 1 were treated with 5 μg/ml of polyethylenimine, and cultured over time (0 hour, 3 hour, 6 hour, 12 hours, 24 hours, or 48 hours), and then Western blotting was performed on the cultured NK cells to identify the amount of granzyme B and perforin protein. […]

[1] = tested on: triple negative breast cancer cell line MDA_MB231; assay: In vitro assay of inducing activity of natural killer cells (CFSE-7AAD assay, apoptosis of target cells); format: cell-based; settings: NK cells cultured 48 hours with the substance, then mixed with MDA_MB231 at E:T 10:1 for 4 hours; target only 1.32, NK cells only 21.36
Experimental: Green fluorescence-labeled MDA MB 231 cells and NK cells were put into a 1.5 ml eppendorf tube in respective ratios, mixed, and reacted in a 37° C., CO2 5% incubator for 4 hours. After the reaction was over, the cells were stained with 7AAD (Invitrogen A1310) for 20 minutes and fixed. Through flow cytometry, the mixed cells were divided into two cell populations according to the presence or absence of green fluorescence, and the percentage of dead cells was measured and compared by group to analyze the activity.
In order to confirm the ability of […] to induce the activity of NK cells according to molecular weight and type, the NK cells of Example 1 were cultured for 48 hours after mixing with various molecular weights and types of polyethylenimine or with a control group.
Next, the cultured NK cells were washed, and re-suspended in a fresh culture medium. Thereafter, the NK cells and triple negative breast cancer cell line MDA_MB231 were mixed in an effector (E):target (T) ratio of 10:1 and cultured for 4 hours. Finally, the degree of apoptosis of the target cells in the cultured cells was quantitatively analyzed using the CFSE-7AAD assay.

Row | Compound | amount of perforin protein (perforin protein) | degree of apoptosis of target cells [1]
1 | CC(C)C[C@@H](C=O)NC(=O)[C@H](CC(C)C)NC(=O)[C@H](CC(C)C)NC(=O)OCc1ccccc1 [MG132] (Cbz-Leu-Leu-Leu-aldehyde) | increased | –
2 | Protamine | – | 25.31
